This assay can be described thus: Acid response study of TPI-C in the aggregation state (PL intensity). The format is physicochemical. As to the method: FIGS. 1A-1C depict PL spectra of TPI-C (10 μM in THF/hexane mixtures with fH=99%) with adding (1A) HCOOH at different concentrations; (1B) CH3COOH at different concentrations; and (1C) CF3COOH at different concentrations.
FIG. 1D is a graph of relative PL intensity (I/I0) at different acid concentrations (x-axis represents acid concentration at (a) 0 M, (b) 1×10^−20 M, (c) 1×10^−14 M and (d) 1×10^−8 M, respectively).
An acid response study of TPI-C in the aggregation state was performed first. The fluorescent intensity response of TPI-C was investigated by adding different acids with various concentrations. In general, the fluorescent intensity of TPI-C was enhanced upon adding the acid. TPI-C responded in this manner to the formic acid, acetic acid (AcOH) and trifluoroacetic acid (TFA) at concentrations as low as 10^−20 M. For the formic acid, its highest intensity enhancement was around 55% at the acid concentration level of 10^−20 M, as shown in FIG. 1A. When AcOH (1×10^−20 M, 1 μL) and TFA (1×10^−20 M, 1 μL) were added to the TPI-C solution, the intensity enhancement of TPI-C was around 120% (FIG. 1B) and 96% (FIG. 1C), respectively.

Regarding `CCCCCCCCn1c(-c2ccc(OC(=O)NCC)cc2)nc(-c2ccccc2)c1-c1ccccc1` [TPI-C], the fluorescent intensity enhancement entry was “around 120%” (AcOH 1×10^−20 M, 1 μL added to TPI-C solution); ~96% (TFA 1×10^−20 M, 1 μL added to TPI-C solution); “around 55%” (formic acid 10^−20 M, TPI-C 10 μM in THF/hexane fH=99%, highest enhancement). The “acid concentration at which fluorescent intensity is enhanced (as low as)” value (formic acid, AcOH, TFA) is listed as 10^−20 M.

For the origin of these results see patent US11739261B2, “Fluorescent probes for acid detection” (THE HONG KONG UNIVERSITY OF SCIENCE AND TECHNOLOGY, priority 2019, dated 2023).
